Here are results for 21 compounds from US9447100B2, “Substituted pyrazolo[1,5-A] pyrimidines as calcium receptor modulating agents” (Takeda Pharmaceutical Company Limited, priority 2002, dated 2016).

Counter-ions that a name gives are not always drawn.

In turn, `CCC(CC)(NC(=O)c1cnn2c1NC(c1ccccc1)CC2(C)C)c1ccc(F)c(F)c1` (stereo not drawn) [Example 589, N-(1-(3,4-difluorophenyl)-1-ethylpropyl)-7,7-dimethyl-5-phenyl-4,5,6,7-tetrahydropyrazolo[1,5-a]pyrimidine-3-carboxamide] gave a melting point of 171 to 172 °C.
For `CCC(CC)(NC(=O)c1cnn2c1NC(c1ccc(C)cc1C)CC2(C)C)c1ccc(C)cc1` (stereo not drawn) (as salt: HCl) [Example 970, 5-(2,4-dimethylphenyl)-N-(1-ethyl-1-(4-methylphenyl)propyl)-7,7-dimethyl-4,5,6,7-tetrahydropyrazolo[1,5-a]pyrimidine-3-carboxamide] the value was 150 to 151 °C.
In the case of `CCc1ccc(C(CC)(CC)NC(=O)c2cnn3c2NC(c2ccccc2)CC3(C)C)cc1` (stereo not drawn) [Example 647, N-(1-ethyl-1-(4-ethylphenyl)propyl)-7,7-dimethyl-5-phenyl-4,5,6,7-tetrahydropyrazolo[1,5-a]pyrimidine-3-carboxamide] it was 156 to 157 °C; in that of `CCC(CC)(NC(=O)c1cnn2c1NC(c1ccccc1)CC2(C)C)c1ccc(CCCO)cc1` (stereo not drawn) [Example 763, N-(1-ethyl-1-(4-(3-hydroxy-propyl)phenyl)propyl)-7,7-dimethyl-5-phenyl-4,5,6,7-tetrahydropyrazolo[1,5-a]pyrimidine-3-carboxamide], 194 to 195 °C.
In the case of `CCC(CC)(NC(=O)c1cnn2c1NC(c1ccccc1)CC2(C)C)c1ccc(C(C)(C)C)cc1` (stereo not drawn) [Example 417, N-(1-(4-tert-butylphenyl)-1-ethylpropyl)-7,7-dimethyl-5-phenyl-4,5,6,7-tetrahydropyrazolo[1,5-a]pyrimidine-3-carboxamide] it was 196 to 197 °C.
Take `CCC(CC)(NC(=O)c1cnn2c1NC(c1ccccc1)CC2(C)C)c1ccc(CCC(=O)O)cc1` (stereo not drawn) [Example 749, 3-(4-(1-(((7,7-dimethyl-5-phenyl-4,5,6,7-tetrahydropyrazolo[1,5-a]pyrimidin-3-yl)carbonyl)amino)-1-ethyl-propyl)phenyl)propanoic acid]: the melting point was 240 to 241 °C.
As to `CCC(CC)(NC(=O)c1c(C)nn2c1NC(c1cccc(OC)c1)CC2(C)C)c1ccc(C)cc1` (stereo not drawn) (as salt: HCl) [Example 966, N-(1-ethyl-1-(4-methylphenyl)propyl)-5-(3-methoxyphenyl)-2,7,7-trimethyl-4,5,6,7-tetrahydropyrazolo[1,5-a]pyrimidine-3-carboxamide], the melting point worked out at 146 °C.
With `Cc1ccc(C(C)(C)NC(=O)c2cnn3c2NC(c2ccccc2)CC3(C)C)cc1` (stereo not drawn) (as salt: HCl) [Example 793, 7,7-dimethyl-N-(1-methyl-1-(4-methylphenyl)ethyl)-5-phenyl-4,5,6,7-tetrahydropyrazolo[1,5-a]pyrimidine-3-carboxamide], the melting point was in the range of 150 to 151 °C.
For `C=Cc1ccc(C(CC)(CC)NC(=O)c2cnn3c2NC(c2ccccc2)CC3(C)C)cc1` (stereo not drawn) [Example 645, N-(1-ethyl-1-(4-vinylphenyl)propyl)-7,7-dimethyl-5-phenyl-4,5,6,7-tetrahydropyrazolo[1,5-a]pyrimidine-3-carboxamide] the value was 155 to 156 °C; for `O=C(NC12CC3CC(CC(C3)C1)C2)c1cnn2c1NC(c1ccccc1)CC21CCCC1` (stereo not drawn) [Example 183, N-(1-adamantyl)-5′-phenyl-5′,6′-dihydro-4′H-spiro[cyclopentane-1,7′-pyrazolo[1,5-a]pyrimidine]-3′-carboxamide], 259 to 261 °C.
In the case of `CC1(C)CC(c2ccccc2)Nc2c(C(=O)NC3(C(N)=O)CCCCC3)cnn21` (stereo not drawn) [Example 626, N-(1-(aminocarbonyl)cyclohexyl)-7,7-dimethyl-5-phenyl-4,5,6,7-tetrahydropyrazolo[1,5-a]pyrimidine-3-carboxamide] it was 140 to 141 °C; in that of `CCCCOC(=O)CCCOc1ccc(C(CC)(CC)NC(=O)c2cnn3c2NC(c2ccccc2)CC3(C)C)cc1` (stereo not drawn) [Example 818, butyl 4-(4-(1-(((7,7-dimethyl-5-phenyl-4,5,6,7-tetrahydropyrazolo[1,5-a]pyrimidin-3-yl)carbonyl)amino)-1-ethyl-propyl)phenoxy)butanoate], 133 to 134 °C; in that of `CCC(CC)(NC(=O)c1c(C)nn2c1NC(c1ccccc1F)CC2(C)C)c1ccc(C)cc1` (stereo not drawn) (as salt: HCl) [Example 831, N-(1-ethyl-1-(4-methylphenyl)propyl)-5-(2-fluorophenyl)-2,7,7-trimethyl-4,5,6,7-tetrahydropyrazolo[1,5-a]pyrimidine-3-carboxamide], 152 to 153 °C.
For `CCC1(NC(=O)c2cnn3c2NC(c2ccccc2)CC3(C)C)CCS(=O)(=O)CC1` (stereo not drawn) [Example 617, N-(4-ethyl-1,1-dioxidotetrahydro-2H-thiopyran-4-yl)-7,7-dimethyl-5-phenyl-4,5,6,7-tetrahydropyrazolo[1,5-a]pyrimidine-3-carboxamide] the value was 155 to 156 °C.
For the compound `CCC1(CC)C[C@H](OCc2ccccc2)CN1C(=O)c1cnn2c1N[C@@H](c1ccccc1)CC2(C)C` [Example 1107, (5R)-3-(((4S)-4-(benzyloxy)-2,2-diethy-1-pyrrolidinyl)carbonyl)-7,7-dimethyl-5-phenyl-4,5,6,7-tetrahydropyrazolo[1,5-a]pyrimidine], the melting point was in the range of 173 to 175 °C.
For `CCCC(CC)(CC)NC(=O)c1cnn2c1N[C@@H](c1ccccc1)CC2(C)C` (as salt: HCl) [Example 1072, (5R)-N-(1,1-diethylbutyl)-7,7-dimethyl-5-phenyl-4,5,6,7-tetrahydropyrazolo[1,5-a]pyrimidine-3-carboxamide] the value was 185 to 186 °C.
`CNC(=O)c1cnn2c1NC(c1ccccc1)CC2(C)C` (stereo not drawn) [Example 768, N,7,7-trimethyl-5-phenyl-4,5,6,7-tetrahydropyrazolo[1,5-a]pyrimidine-3-carboxamide] showed a melting point of 116 to 117 °C.
For `CCOc1ccc(C(CC)(CC)NC(=O)c2cnn3c2NC(c2ccccc2)CC3(C)C)cc1` (stereo not drawn) [Example 722, N-(1-(4-ethoxyphenyl)-1-ethylpropyl)-7,7-dimethyl-5-phenyl-4,5,6,7-tetrahydropyrazolo[1,5-a]pyrimidine-3-carboxamide] the value was 141 to 142 °C.
In the case of `O=C(NCc1ccc(Oc2ccc(F)cc2)cc1)c1cnn2c1NC(c1ccccc1)CC2C(F)(F)F` (stereo not drawn) [Example 271, N-(4-(4-fluorophenoxy)benzyl)-5-phenyl-7-(trifluoromethyl)-4,5,6,7-tetrahydropyrazolo[1,5-a]pyrimidine-3-carboxamide] it was 169 to 172 °C; in that of `O=C(c1cnn2c1N[C@H](c1ccccc1)C[C@@H]2C(F)(F)F)N(C1CCCCC1)C1CCCCC1` (stereo in doubt) [Example 373, N,N-dicyclohexyl-5-phenyl-7-(trifluoromethyl)-4,5,6,7-tetrahydropyrazolo[1,5-a]pyrimidine-3-carboxamide], 243 to 244 °C.
For `O=C(O)c1cnn2c1NC(c1ccccc1)C1CCCCC12` (stereo not drawn) [Example 39, 5-phenyl-4,5,5a,6,7,8,9,9a-octahydropyrazolo[1,5-a]quinazoline-3-carboxylic acid] the value was 158 to 160 °C.
